The source of these data is patent publication US20240366637A1, “Compounds inhibiting the synergistic carsinogenic effect of heavy metals in the presence of other carcinogens for use in the treatment of cancer” (priority 2021, published 2024).

Structures are written as SMILES.

Series [1] concerns Salmonella typhimurium TA1535. To be noted: cadmium chloride 0.5 mM as pro-mutagen, N-Methyl-N-nitrosourea 180 μM as mutagen, candidate in various concentrations; mutant revertants on solid media. The procedure: The operating hypothesis was tested with an AMES test (as described e.g. by Mandel and Ryser, 1984) based platform using Salmonella typhimurium TA1535 (Standard Ames Tester Strain), cadmium chloride as pro-mutagen (0.5 mM final concentration during treatment), N-Methyl-N-nitrosourea as mutagen (180 μM final concentration during treatment) and EDTA, phytic acid (IP6) and Unithiol (i.e. DMPS) as candidate cadmium-promoted mutagenicity antidotes (in various concentrations, see FIGS. 1 and 2).
The experiment included the following steps: • 1. Healthy growth of bacterial cells • 2. Absorption of cadmium chloride (as a non-genotoxic metabolic poison) under conditions of reduced metabolism (bacteria chilled on ice) • 3. Addition of candidate antidotes and metabolic activation (fresh growth medium, 37° C.) • 4. Addition of N-methyl-N-nitrosourea under metabolically active conditions to fix mutations (fresh growth medium, 37° C.) • 5. Screening for mutant revertants on solid media (standard, second generation Petri dish-based AMES test)

The next series deals with Salmonella typhimurium. To be noted: synergistic with two nitrosoamines; cited from earlier work.

For the compound `O=C(O)CN(CCN(CC(=O)O)CC(=O)O)CC(=O)O` [EDTA], the “inhibition of mutagenicity-promoting synergy between cadmium and N-methyl-N-nitrosourea” value (“inhibition” for short) in series [1] was “did not inhibit”. `O=P(O)(O)O[C@H]1[C@H](OP(=O)(O)O)[C@@H](OP(=O)(O)O)[C@H](OP(=O)(O)O)[C@@H](OP(=O)(O)O)[C@H]1OP(=O)(O)O` [phytic acid]: the “inhibition” value in series [1] is reported as “dose-dependent inhibition”. `O=S(=O)(O)CC(S)CS` (stereo not shown) [Unithiol, 2,3-Dimercapto-1-propanesulfonic acid]: the “inhibition” value in series [1] was “dose-dependent inhibition”. With `[Cl][Cd][Cl]` [cadmium chloride], the “increase of the mutagenicity of two common nitrosoamines, greater than expected from simple additivity” value in the series on Salmonella typhimurium was “up to 30 fold”.
